Calls of active or inactive are those of the source.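 Rule for the calls: active = cell-killing curve crosses a set limit at a concentration no more than twice the top valid dose; inconclusive = flat curve with a 30 to 70% loss, or a poor fit; inactive = signal rising instead of falling, and the rest.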
Test system: TC71 Ewing sarcoma viability, CellTiter-Glo ATP, 72 h
Assay: TC71 Ewing sarcoma cell killing, confirmation, luminescence, cherry-picked samples, retest (AID 720570)
Conditions: not given

Compound	AC35
CC(C)(C)c1ccc(Oc2ccc(NC(=O)c3ccccc3C(=O)O)cn2)cc1	10.3 µM
COc1cc(-c2coc3c(C(=O)NCc4ccc(C(F)(F)F)cc4)cccc23)ccc1O	4.09 µM
O=C(C[C@@H]1C[C@H]2c3cc(NS(=O)(=O)c4ccc(F)cc4)ccc3O[C@H]2[C@H](CO)O1)NCc1ccc(-c2ccccc2)cc1	1.91 µM
O=C(c1cccc(S(=O)(=O)NCc2ccccc2)c1)N1CCN(c2ccccc2)CC1	17.6 µM
COC(=O)C[C@@H]1CC[C@@H]2[C@H](COc3ccc(NC(=O)c4ccc(C(F)(F)F)cc4)cc3C(=O)N2C)O1	9.91 µM
C[C@H](CO)N1C[C@H](C)[C@H](CN(C)Cc2ccc(C(=O)Nc3ccccc3N)cc2)Oc2ccc(N(C)C)cc2C1=O	11.9 µM

Test system: not listed separately
Assay: as above
Conditions: TC71 Ewing sarcoma viability, CellTiter-Glo ATP, 72 h; at 23.5 µM (top of the series)

Compound	activity change, negative = cytotoxicity
COC(=O)C[C@@H]1CC[C@@H]2[C@@H](COc3ccc(NC(=O)Nc4cccc(Cl)c4)cc3C(=O)N2C)O1	-4.34% (inactive)
O=S(=O)(c1ccc(F)cc1)N1C[C@H]2[C@@H](c3ccccc31)[C@H](CO)N2Cc1ccccc1Cl	-20.2% (inactive)
N#C[C@H]1[C@H](c2ccc(C#Cc3ccccc3F)cc2)[C@@H](CO)N1C(=O)C1CCCCC1	-17% (inactive)

Same assay, conditions: TC71 Ewing sarcoma viability, CellTiter-Glo ATP, 72 h; at 26 µM (top of the series)

Compound	activity change, negative = cytotoxicity
CC(C)(C)c1ccc(Oc2ccc(NC(=O)C3CC=CCC3C(=O)O)cc2)cc1 (stereo not drawn)	-20.1% (inactive)
COc1cc(/C=N/NS(=O)(=O)c2ccc(C)cc2)ccc1OCc1cccc(C(=O)O)c1	-3.76% (inactive)
COC(=O)c1cccc(NC(=O)NC(=O)c2ccc(Cl)cc2)c1	-16.8% (inactive)
CCCNC(=O)[C@@H]1[C@@H](CO)[C@@H]2Cn3c(ccc(-c4ccccc4)c3=O)[C@H]1N2C(=O)CC	0.956% (inactive)
O=C(O)c1cccc(N/N=C/c2cccs2)c1	8.12% (inactive)
C/C(=N\Nc1cccc2cccnc12)c1ccccn1	3.52% (inactive)
C=C(C(=O)c1ccccc1)C(C(=C)C(=O)c1ccccc1)c1ccc(OC)cc1	10.8% (inactive)
CC(C)(C)C(=O)Nc1ccc(N=Nc2ccccc2)cc1	-0.79% (inactive)
CN(CCO)c1ccc(/C=N/Nc2nncc3ccccc23)cc1	0.119% (inactive)
CCCCNC1=CC(=O)C(=O)c2ccccc21	3.77% (inactive)
Cc1c(CC(=O)NCCCC(=O)O)c(=O)oc2cc3c(cc12)CCC(C)(C)O3	4.66% (inactive)
O=C1c2ccc3c4c(ccc(c24)C(=O)N1c1cccc(O)c1)C(=O)N(c1cccc(O)c1)C3=O	-1.18% (inactive)
O=C1C(=O)N(Cc2cccs2)c2ccccc21	17.4% (inactive)
COc1ccc(/C=C2\Oc3ccccc3C2=O)cc1	-14.5% (inactive)
COc1ccccc1NS(=O)(=O)c1cc(NC(=O)c2cc3ccccc3oc2=O)ccc1C	1.31% (inactive)
O=C(Nc1nc(-c2ccc(F)c(F)c2)cs1)c1ccc(OCC2CCCO2)cc1 (stereo not drawn)	1.49% (inactive)
Nc1ccc(Oc2ccccc2-c2ccccc2)cc1	5.42% (inactive)
N/C(Cc1nc(-c2ccc(F)cc2)cs1)=N\O	11.6% (inactive)
O=C(COC(=O)c1ccc[nH]c1=O)Nc1ccc(N2CCCCC2)cc1	6.54% (inactive)
CCCn1c(C)cc(C(=O)CN2C(=O)c3ccccc3S2(=O)=O)c1C	5.44% (inactive)
Cc1ccc2c(c1)C(=O)N1[C@H]3c4cc(Br)ccc4OC[C@@H]3[C@H](c3ccccc3)[C@]1(C)C(=O)N2	-5.71% (inactive)
Cc1ccsc1C(=O)OCC(=O)NCCC1=CCCCC1	9.59% (inactive)
Cc1csc(NC(=O)CCc2c(C)nc3cc(-c4ccc(Cl)cc4)nn3c2C)n1	10.8% (inactive)
C=CC[n+]1c(-c2ccc(C)cc2)csc1Nc1ccc(NC(C)=O)cc1	0.856% (inactive)
